Assay results reported in patent publication US9365583B2, “Substituted pyrazoles and uses thereof” (Genentech, Inc., priority 2013, dated 2016).

Target: T1, N-terminally GST-tagged DLK (catalytic domain amino acid 1-520) (Homo sapiens, UniProt Q12852)
T1 construct: N-terminally GST-tagged DLK (catalytic domain amino acid 1-520); purchased Carna Bioscience
T1 sequence (Q12852 1-520): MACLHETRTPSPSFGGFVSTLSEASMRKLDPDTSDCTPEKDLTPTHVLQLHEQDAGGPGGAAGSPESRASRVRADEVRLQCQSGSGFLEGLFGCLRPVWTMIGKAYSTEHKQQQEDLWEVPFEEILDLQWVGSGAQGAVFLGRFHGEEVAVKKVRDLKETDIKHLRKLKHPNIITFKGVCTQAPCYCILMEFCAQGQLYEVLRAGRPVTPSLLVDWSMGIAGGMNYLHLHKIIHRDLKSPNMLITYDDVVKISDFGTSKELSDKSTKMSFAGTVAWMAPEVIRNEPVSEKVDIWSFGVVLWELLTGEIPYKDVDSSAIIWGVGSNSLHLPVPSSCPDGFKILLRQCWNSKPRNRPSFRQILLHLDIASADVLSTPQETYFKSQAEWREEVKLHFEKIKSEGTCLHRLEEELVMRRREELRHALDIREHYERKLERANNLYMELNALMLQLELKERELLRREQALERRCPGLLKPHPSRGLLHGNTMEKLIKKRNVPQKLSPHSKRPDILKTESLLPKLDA
Assay: DLK TR-FRET inhibition assay
Assay type: biochemical
Settings: 5 nM GST-DLK, 40 nM HIS-MKK4 K131M substrate, 30 μM ATP, 60 minutes at ambient temperature
How it was run: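 5 nM GST-DLK (aa 1-520), 40 nM HIS-MKK4 K131M and 30 μM ATP reacted 60 min at ambient temperature in HEPES pH 7.5 buffer with 10 mM MgCl2, compound 1:3 serially diluted from 20 uM. TR-FRET detection of phospho-MKK4 used Eu-cryptate anti-phospho-MKK4 plus D2 anti-HIS, read after 3 h (665/615 nm).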

SMILES	Ki
CC(C)n1nc(-c2cnc(N)c(OC(F)F)c2)cc1[C@H]1[C@@H]2C[C@H](N3CCN(C)C[C@@H]3C)C[C@@H]21 [compound 238, 3-(difluoromethoxy)-5-(5-((1R,3r,5S,6S)-3-((S)-2,4-dimethyl-piperazin-1-yl)bicyclo[3.1.0]hexan-6-yl)-1-isopropyl-1H-pyrazol-3-yl)pyridin-2-amine]	1.6 nM
CC(C)n1nc(-c2cnc(N)c(OC(F)(F)F)c2)cc1[C@H]1[C@@H]2C[C@H](N3CCN(C)C[C@@H]3C)C[C@@H]21 [compound 240, 5-(5-((1R,3r,5S,6S)-3-((S)-2,4-dimethylpiperazin-1-yl)bicyclo [3.1.0]hexan-6-yl)-1-isopropyl-1H-pyrazol-3-yl)-3-(trifluoromethoxy) pyridin-2-amine]	2.1 nM
CC(C)n1nc(-c2cnc(N)c(OC(F)F)c2)cc1[C@H]1[C@@H]2C[C@@H](N3CCN(C)C[C@@H]3C)C[C@@H]21 [compound 241, 3-(difluoromethoxy)-5-(5-((1R,3s,5S,6S)-3-((S)-2,4-dimethyl-piperazin-1-yl)bicyclo[3.1.0]hexan-6-yl)-1-isopropyl-1H-pyrazol-3-yl)pyridin-2-amine]	2 nM
Nc1ncc(-c2cc([C@H]3[C@@H]4C[C@@H](N5CCCOCC5)C[C@@H]43)n(CC(F)F)n2)cc1OC(F)(F)F [compound 243, 5-(5-((1R,3s,5S,6r)-3-(1,4-oxazepan-4-yl)bicyclo[3.1.0]hexan-6-yl)-1-(2,2-difluoroethyl)-1H-pyrazol-3-yl)-3-(trifluoromethoxy) pyridin-2-amine]	1.1 nM
CC(C)n1nc(-c2cnc(N)c(OC(F)(F)F)c2)cc1[C@H]1[C@@H]2C[C@H](N3CCNCC3)C[C@@H]21 [compound 244, 5-(1-isopropyl-5-((1R,3r,5S,6r)-3-(piperazin-1-yl)bicyclo[3.1.0]hexan-6-yl)-1H-pyrazol-3-yl)-3 - (trifluoromethoxy)pyridin-2-amine]	1.1 nM
COC1CCN([C@@H]2C[C@@H]3[C@H](C2)[C@H]3c2cc(-c3cnc(N)c(OC(F)(F)F)c3)nn2C(C)C)CC1 [compound 246, 5-(1-isopropyl-5-((1R,3s,5S,6r)-3-(4-methoxypiperidin-1-yl)bicyclo[3.1.0]hexan-6-yl)-1H-pyrazol-3-yl)-3-(trifluoromethoxy) pyridin-2-amine]	1.8 nM
COC1CCN([C@H]2C[C@@H]3[C@H](C2)[C@H]3c2cc(-c3cnc(N)c(OC(F)F)c3)nn2C(C)C)CC1 [compound 247, 3-(difluoromethoxy)-5-(1-isopropyl-5-((1R,3r,5S,6r)-3-(4-methoxypiperidin-1-yl)bicyclo[3.1.0]hexan-6-yl)-1H-pyrazol-3-yl) pyridin-2-amine]	2.9 nM
COC1CCN([C@H]2C[C@@H]3[C@H](C2)[C@H]3c2cc(-c3cnc(N)c(OC(F)(F)F)c3)nn2C(C)C)CC1 [compound 248, 5-(1-isopropyl-5-((1R,3r,5S,6r)-3-(4-methoxypiperidin-1-yl)bicyclo[3.1.0]hexan-6-yl)-1H-pyrazol-3-yl)-3-(trifluoromethoxy) pyridin-2-amine]	2.8 nM
COC1CCN([C@@H]2C[C@@H]3[C@H](C2)[C@H]3c2cc(-c3cnc(N)c(OC(F)F)c3)nn2C(C)C)CC1 [compound 250, 3-(difluoromethoxy)-5-(1-isopropyl-5-((1R,3s,5S,6r)-3-(4-methoxy-piperidin-1-yl)bicyclo[3.1.0]hexan-6-yl)-1H-pyrazol-3-yl) pyridin-2-amine]	2 nM
Nc1ncc(-c2cc([C@H]3[C@@H]4C[C@H](N5CCCOCC5)C[C@@H]43)n(CC(F)F)n2)cc1OC(F)(F)F [compound 256, 5-(5-((1R,3r,5S,6r)-3-(1,4-oxazepan-4-yl)bicyclo[3.1.0]hexan-6-yl)-1-(2,2-difluoroethyl)-1H-pyrazol-3-yl)-3-(trifluoromethoxy) pyridin-2-amine]	1.1 nM
CC(C)n1nc(-c2cnc(N)c(OC(F)F)c2)cc1[C@H]1[C@@H]2C[C@@H](N3CCN(CC(F)F)CC3)C[C@@H]21 [compound 257, 5-(5-((1R,3s,5S,6r)-3-(4-(2,2-difluoro-ethyl)piperazin-1-yl)bicyclo [3.1.0]hexan-6-yl)-1-isopropyl-1H-pyrazol-3-yl)-3-(difluoromethoxy)pyridin-2-amine]	0.7 nM
CC(C)n1nc(-c2cnc(N)c(OC(F)F)c2)cc1[C@H]1[C@@H]2C[C@H](N3CCN4CCCC4C3)C[C@@H]21 (stereo partly drawn) [compound 260, 3-(difluoromethoxy)-5-(5-((1R,3r,5S,6r)-3-(hexahydropyrrolo [1,2-a]pyrazin-2(1H)-yl)bicyclo [3.1.0]hexan-6-yl)-1-isopropyl-1H-pyrazol-3-yl)pyridin-2-amine]	0.4 nM
CC(C)n1nc(-c2cnc(N)c(OC(F)F)c2)cc1[C@H]1[C@@H]2C[C@H](N3CCN(CC(F)F)CC3)C[C@@H]21 [compound 264, 5-(5-((1R,3r,5S,6r)-3-(4-(2,2-difluoroethyl)piperazin-1-yl)bicyclo [3.1.0]hexan-6-yl)-1-isopropyl-1H-pyrazol-3-yl)-3-(difluoromethoxy)pyridin-2-amine]	1.8 nM

Further lines, results first:

Ki	SMILES
1.7 nM	CC(C)n1nc(-c2cnc(N)c(C(F)(F)F)c2)cc1[C@H]1[C@@H]2C[C@@H](N3CCN(C)C[C@@H]3C)C[C@@H]21 [compound 239, 5-(5-((1R,3s,5S,6S)-3-((S)-2,4-dimethylpiperazin-1-yl)bicyclo [3.1.0]hexan-6-yl)-1-isopropyl-1H-pyrazol-3-yl)-3-(trifluoromethyl) pyridin-2-amine]
2.1 nM	CC(C)n1nc(-c2cnc(N)c(C(F)(F)F)c2)cc1[C@H]1[C@@H]2C[C@H](N3CCN(C)C[C@@H]3C)C[C@@H]21 [compound 242, 5-(5-((1R,3r,5S,6S)-3-((S)-2,4-dimethylpiperazin-1-yl)bicyclo [3.1.0]hexan-6-yl)-1-isopropyl-1H-pyrazol-3-yl)-3-(trifluoromethyl) pyridin-2-amine]
2.6 nM	CC(C)n1nc(-c2cnc(N)c(OC(F)(F)F)c2)cc1[C@H]1[C@@H]2C[C@@H](N3CCNCC3)C[C@@H]21 [compound 245, 5-(1-isopropyl-5-((1R,3s,5S,6r)-3-(piperazin-1-yl)bicyclo[3.1.0]hexan-6-yl)-1H-pyrazol-3-yl)-3-(trifluoromethoxy)pyridin-2-amine]
2.6 nM	COC1CCN([C@@H]2C[C@@H]3[C@H](C2)[C@H]3c2cc(-c3cnc(N)c(C(F)(F)F)c3)nn2C(C)C)CC1 [compound 249, 5-(1-isopropyl-5-((1R,3s,5S,6r)-3-(4-methoxypiperidin-1-yl)bicyclo[3.1.0]hexan-6-yl)-1H-pyrazol-3-yl)-3-(trifluoromethyl) pyridin-2-amine]
2.7 nM	COC1CCN([C@H]2C[C@@H]3[C@H](C2)[C@H]3c2cc(-c3cnc(N)c(C(F)(F)F)c3)nn2C(C)C)CC1 [compound 251, 5-(1-isopropyl-5-((1R,3r,5S,6r)-3-(4-methoxypiperidin-1-yl)bicyclo[3.1.0]hexan-6-yl)-1H-pyrazol-3-yl)-3-(trifluoromethyl) pyridin-2-amine]
3 nM	CC(C)n1nc(-c2cnc(N)c(OC(F)F)c2)cc1[C@H]1[C@@H]2C[C@H](NCC(F)F)C[C@@H]21 [compound 252, 5-(5-((1R,3r,5S,6r)-3-((2,2-difluoro-ethyl)amino)bicyclo[3.1.0]hexan-6-yl)-1-isopropyl-1H-pyrazol-3-yl)-3-(difluoromethoxy) pyridin-2-amine]
3.4 nM	CC(C)n1nc(-c2cnc(N)c(C(F)(F)F)c2)cc1[C@H]1[C@@H]2C[C@H](NCC(F)F)C[C@@H]21 [compound 253, 5-(5-((1R,3r,5S,6r)-3-((2,2-difluoroethyl)amino)bicyclo[3.1.0]hexan-6-yl)-1-isopropyl-1H-pyrazol-3-yl)-3-(trifluoromethyl) pyridin-2-amine]
2.4 nM	CC(C)n1nc(-c2cnc(N)c(C(F)(F)F)c2)cc1[C@H]1[C@@H]2C[C@@H](NCC(F)F)C[C@@H]21 [compound 254, 5-(5-((1R,3s,5S,6r)-3-((2,2-difluoroethyl)amino)bicyclo[3.1.0]hexan-6-yl)-1-isopropyl-1H-pyrazol-3-yl)-3-(trifluoromethyl) pyridin-2-amine]
1.5 nM	CC(C)n1nc(-c2cnc(N)c(OC(F)F)c2)cc1[C@H]1[C@@H]2C[C@@H](NCC(F)F)C[C@@H]21 [compound 255, 5-(5-((1R,3s,5S,6r)-3-((2,2-difluoroethyl)amino)bicyclo[3.1.0]hexan-6-yl)-1-isopropyl-1H-pyrazol-3-yl)-3-(difluoromethoxy) pyridin-2-amine]
< 0.1 nM	CC(C)n1nc(-c2cnc(N)c(C(F)(F)F)c2)cc1[C@H]1[C@@H]2C[C@H](N3CCN4CCCC4C3)C[C@@H]21 (stereo partly drawn) [compound 262, 5-(5-((1R,3r,5S,6r)-3-(hexa-hydropyrrolo[1,2-a]pyrazin-2(1H)-yl)bicyclo[3.1.0]hexan-6-yl)-1-isopropyl-1H-pyrazol-3-yl)-3-(trifluoromethyl)pyridin-2-amine]
